What is called EC50 is the midpoint of the concentration-response curve.

This assay concerns the target T1, human GPBAR1 receptor (Homo sapiens, UniProt Q8TDU6).
T1 construct: expressed in transfected cells
T1 sequence (Q8TDU6 1-330): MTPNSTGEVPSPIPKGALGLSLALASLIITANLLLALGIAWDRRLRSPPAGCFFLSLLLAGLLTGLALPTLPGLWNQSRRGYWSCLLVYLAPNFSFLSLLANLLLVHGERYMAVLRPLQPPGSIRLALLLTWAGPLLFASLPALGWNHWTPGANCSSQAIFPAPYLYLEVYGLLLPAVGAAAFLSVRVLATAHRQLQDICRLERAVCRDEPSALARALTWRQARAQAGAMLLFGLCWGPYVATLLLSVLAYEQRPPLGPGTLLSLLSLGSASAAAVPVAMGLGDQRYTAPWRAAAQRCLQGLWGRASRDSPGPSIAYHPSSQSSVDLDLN
As to the kind of experiment: functional cAMP assay in CHO-dhfr(minus) cells expressing human GPBAR1 receptors. Type of assay: cell-based. As to conditions: human EC50, functional cAMP assay, 30 min at 30° C. On the procedure:
The final clone was verified by DNA sequence analysis. The plasmid was transfected into CHO cells deficient in dihydrofolate reductase activity (CHO-dhfr−) using Lipofectamine plus (Invitrogen). Clones were isolated in limited dilution conditions and identified by activities in the cAMP assay using lithocholic acid as agonist.
The growth medium was exchanged with Krebs Ringer Bicarbonate buffer with 1 mM IBMX and incubated at 30° C. for 30 min. Compounds were added to a final assay volume of 100 μl and incubated for 30 min at 30° C. […] The time-resolved energy transfer is measured by a TRF reader (Evotec Technologies GmbH, Hamburg Germany), equipped with a ND:YAG laser as excitation source.
EC50 values were determined using Activity Base analysis (ID Business Solution, Limited). […] Specificity for GPBAR1 was tested in non-transfected CHO cells in the same assay as above.
In general terms: Changes in cAMP serve as a functional read-out for many G protein-coupled receptors.
With `Cc1cc(Cl)ccc1C(C/C(=N\O)c1ccc(=O)n(CCO)c1)c1ccc(S(C)(=O)=O)cc1` (centres unmarked) [Example 342, (E)-5-(3-(4-Chloro-2-methylphenyl)-1-(hydroxyimino)-3-(4-(methylsulfonyl)phenyl)-propyl)-1-(2-hydroxyethyl)pyridin-2(1H)-one], the EC50 worked out at 993 nM.

In turn, `CC(C)CC(C/C(=N/O)c1ccc(=O)n(C)c1)c1ccc(Br)cc1` (centres unmarked) [Example 171, 5-{3-(4-Bromo-phenyl)-1-[(Z)-hydroxyimino]-5-methyl-hexyl}-1-methyl-1H-pyridin-2-one] yielded an EC50 of 4000 nM.

`Cc1cc(/C(C[C@@H](c2ccc(-c3ccc(C(=O)O)cc3)cc2)c2ccc(Cl)cc2C)=N/O)ccn1` [Example 296, 4′-[(S)-1-(4-Chloro-2-methyl-phenyl)-3-[(E)-hydroxyimino]-3-(2-methyl-pyridin-4-yl)-propyl]-biphenyl-4-carboxylic acid] gave a 50% effective concentration (EC50) of 32 nM.

Regarding `Cn1cc(/C(CC(c2ccccc2Cl)C2CCCC2)=N/O)ccc1=O` (centres unmarked) [Example 197, 5-{3-(2-Chloro-phenyl)-3-cyclopentyl-1-[(E)-hydroxyimino]-propyl}-1-methyl-1H-pyridin-2-one], the EC50 was determined as 12 nM.

For the compound `Cn1cc(/C(CC(c2ccc(C(=O)N[C@H]3CC[C@H](C(=O)O)CC3)c(F)c2)c2ccccc2Cl)=N/O)ccc1=O` (stereo partly drawn) [Example 231, Trans-4-{4-[1-(2-Chloro-phenyl)-3-[(E)-hydroxyimino]-3-(1-methyl-6-oxo-1,6-dihydro-pyridin-3-yl)-propyl]-2-fluoro-benzoylamino}-cyclohexanecarboxylic acid], the response was half-maximal at 283 nM (EC50).

As to `Cc1cc(Cl)ccc1C(C/C(=N\O)c1ccc(=O)n(C)c1)c1ccc(OS(C)(=O)=O)c(F)c1` (centres unmarked) [Example 329, Methanesulfonic acid 4-[1-(4-chloro-2-methyl-phenyl)-3-[(E)-hydroxyimino]-3-(1-methyl-6-oxo-1,6-dihydro-pyridin-3-yl)-propyl]-2-fluoro-phenyl ester], the EC50 is 62 nM.

Consider `Cc1cc(Cl)ccc1[C@H](C/C(=N\O)c1ccc(=O)n(C)c1)c1ccc(-c2ccc(S(N)(=O)=O)cc2)cc1` (single isomer, unassigned) [Example 413, (−)-4′-[1-(4-Chloro-2-methyl-phenyl)-3-[(E)-hydroxyimino]-3-(1-methyl-6-oxo-1,6-dihydro-pyridin-3-yl)-propyl]-biphenyl-4-sulfonic acid amide], for which the EC50 turned out to be 18 nM.

`Cc1cc(C(CC(c2cccc(-c3ccc(C(=O)O)nc3)c2)c2ccccc2C)=NO)ccn1` (racemic) [Example 99, 5-{3-[3-[Hydroxyimino]-3-(2-methyl-pyridin-4-yl)-1-o-tolyl-propyl]-phenyl}-pyridine-2-carboxylic acid] registered a concentration giving a half-maximal response (EC50) of 5050 nM.

Compound `Cc1ccccc1C(C/C(=N\O)c1ccc(=O)n(C)c1)c1ccc(C(=O)NC2(CO)CC2)cc1` (centres unmarked) [Example 308, (E)-4-(3-(Hydroxyimino)-3-(1-methyl-6-oxo-1,6-dihydropyridin-3-yl)-1-o-tolylpropyl)-N-(1-(hydroxymethyl)cyclopropyl)benzamide] yielded an EC50 of 592 nM. Against the preceding compound, the EC50 is about 8.5-fold lower.

In turn, `Cc1cc(/C(C[C@H](c2ccc(CC(=O)NCCO)cc2)c2ccccc2C)=N/O)ccn1` [Example 289, N-(2-Hydroxy-ethyl)-2-{4-[(R)-3-[(E)-hydroxyimino]-3-(2-methyl-pyridin-4-yl)-1-o-tolyl-propyl]-phenyl}-acetamide] registered an EC50 of 23 nM.

Regarding `Cc1cc(/C(C[C@H](c2ccc(C3=CCNCC3)cc2)c2ccccc2C)=N/O)ccn1` [Example 375, (R,E)-1-(2-Methylpyridin-4-yl)-3-(4-(1,2,3,6-tetrahydropyridin-4-yl)phenyl)-3-o-tolylpropan-1-one oxime], the EC50 is 75 nM.

In the case of `Cn1cc(/C(CC(c2ccc(-c3ccc(CC#N)cc3)cc2)c2ccc(Cl)cc2F)=N/O)ccc1=O` (centres unmarked) [Example 459, {4′-[1-(4-Chloro-2-fluoro-phenyl)-3-[(E)-hydroxyimino]-3-(1-methyl-6-oxo-1,6-dihydro-pyridin-3-yl)-propyl]-biphenyl-4-yl}-acetonitrile], a half-maximal effect (EC50) was put at 364 nM.

`Cc1cc(/C(C[C@H](c2ccc(N3C[C@@H]4C(C(=O)O)[C@@H]4C3)cc2)c2ccc(F)cc2F)=N/O)ccn1` (single isomer, unassigned) [Example 429] registered an EC50 of 2 nM. This EC50 lies about 180-fold lower than the previous one.

In turn, `Cc1ccccc1C(C/C(=N\O)c1ccc(=O)n(C)c1)c1ccc(-c2ccccc2C(=O)O)cc1F` (centres unmarked) [Example 236, 3′-Fluoro-4′-[3-[(E)-hydroxyimino]-3-(1-methyl-6-oxo-1,6-dihydro-pyridin-3-yl)-1-o-tolyl-propyl]-biphenyl-2-carboxylic acid] returned a concentration for a half-maximal effect (EC50) of 1200 nM.

In turn, `Cc1cc(/C(C[C@H](c2ccc(C(=O)NC[C@H](C)O)cc2)c2ccccc2C)=N/O)ccn1` [Example 275, 4-[(R)-3-[(E)-Hydroxyimino]-3-(2-methyl-pyridin-4-yl)-1-o-tolyl-propyl]-N—((S)-2-hydroxy-propyl)-benzamide] yielded an EC50 of 26 nM.

With `Cc1cc(/C(C[C@@H](c2ccc(N3CCOCC3)cc2)c2ccccc2C)=N/O)ccn1` [Example 381, (S,E)-1-(2-Methylpyridin-4-yl)-3-(4-morpholinophenyl)-3-o-tolylpropan-1-one oxime], a half-maximal response (EC50) required 50 nM.

As for `Cc1cc(/C(CC(c2ccc(-c3ccc(C(=O)O)cc3)cc2)c2ccc(F)cc2C)=N/O)ccn1` (centres unmarked) [Example 141, (E)-4′-(1-(4-Fluoro-2-methylphenyl)-3-(hydroxyimino)-3-(2-methylpyridin-4-yl)propyl)biphenyl-4-carboxylic acid], the midpoint of the response, the EC50, lay at 8 nM.

The compound `Cc1cc(/C(C[C@H](c2ccc([C@H]3CC[C@@H](C(=O)O)CC3)cc2)c2ccc(Cl)cc2C)=N/O)ccn1` [Example 505, cis-4-(4-((R,E)-1-(4-chloro-2-methylphenyl)-3-(hydroxyimino)-3-(2-methylpyridin-4-yl)propyl)phenyl)cyclohexanecarboxylic acid] yielded an EC50 of 13 nM.

In turn, `Cc1ccccc1C(C/C(=N\O)c1cc(F)cc(F)c1F)c1ccc(Br)cc1` (centres unmarked) [Example 48, (E)-3-(4-Bromo-phenyl)-3-o-tolyl-1-(2,3,5-trifluoro-phenyl)-propan-1-one oxime] had an EC50 of 4360 nM.

`Cc1cc(/C(CC(c2ccc(Br)cc2)c2ncccc2C)=N/O)ccn1` (centres unmarked) [Example 116, (E)-3-(4-Bromo-phenyl)-3-(3-methyl-pyridin-2-yl)-1-(2-methyl-pyridin-4-yl)-propan-1-one oxime] came in with an EC50 of 5 nM.

For `O=C(O)c1cccc(-c2ccc(C(C/C(=N\O)c3ccncc3)c3ccccc3)cc2)c1` (centres unmarked) [Example 76, 4′-{3-[(E)-Hydroxyimino]-1-phenyl-3-pyridin-4-yl-propyl}-biphenyl-3-carboxylic acid], the midpoint of the response, the EC50, lay at 490 nM. Compared with the last compound, the EC50 is about 98-fold higher.

Regarding `Cc1cc(/C(C[C@H](c2ccc(C3CNC3)cc2)c2ccccc2C)=N/O)ccn1` [Example 482, (R,E)-3-(4-(Azetidin-3-yl)phenyl)-1-(2-methylpyridin-4-yl)-3-o-tolylpropan-1-one oxime], the EC50 was 127 nM.

As to `Cc1cc(C(=O)O)ccc1-c1ccc([C@@H](C/C(=N\O)c2ccc(=O)n(C)c2)c2ccc(Cl)cc2F)cc1` (single isomer, unassigned) [Example 465, 4′-[(−)-1-(4-Chloro-2-fluoro-phenyl)-3-[(E)-hydroxyimino]-3-(1-methyl-6-oxo-1,6-dihydro-pyridin-3-yl)-propyl]-2-methyl-biphenyl-4-carboxylic acid], it took 350 nM to reach a half-maximal effect (EC50).

`Cc1ccccc1C(C/C(=N\O)c1ccc(=O)n(C)c1)c1ccc(C(=O)NCCS(C)(=O)=O)cc1` (centres unmarked) [Example 310, (E)-4-(3-(Hydroxyimino)-3-(1-methyl-6-oxo-1,6-dihydropyridin-3-yl)-1-o-tolylpropyl)-N-(2-(methylsulfonyl)ethyl)benzamide] displayed an EC50 of 153 nM.

In turn, `Cc1ccccc1[C@H](C/C(Cc1ccncc1)=N/O)c1ccc(Br)cc1` [Example 262, (Z,R)-4-(4-bromophenyl)-1-(pyridin-4-yl)-4-o-tolylbutan-2-one oxime] returned an EC50 of 278 nM.

In the case of `Cn1cc(/C(CC(c2ccccc2)c2ccccc2)=N/O)ccc1=O` [Example 161, 5-{1-[(E)-Hydroxyimino]-3,3-diphenyl-propyl}-1-methyl-1H-pyridin-2-one], the concentration giving a half-maximal response (EC50) was 119 nM.

With `Cc1cc(/C(CC(c2ccc(Br)cc2)c2ccc(Cl)cc2C)=N/O)ccn1` (centres unmarked) [Example 138, (E)-3-(4-Bromophenyl)-3-(4-chloro-2-methylphenyl)-1-(2-methylpyridin-4-yl)propan-1-one oxime], the EC50 is 155 nM.

Take `Cn1cc(/C(CC(c2ccc(S(C)(=O)=O)cc2)c2cc(Cl)cc(Cl)c2)=N/O)ccc1=O` (centres unmarked) [Example 352, (E)-5-(3-(3,5-Dichlorophenyl)-1-(hydroxyimino)-3-(4-(methylsulfonyl)phenyl)propyl)-1-methylpyridin-2(1H)-one]: it took 81 nM to reach a half-maximal effect (EC50).

The compound `Cc1cc(/C(CC(c2cccc(S(C)(=O)=O)c2)c2ccccc2C)=N/O)ccn1` (centres unmarked) [Example 391, (E)-1-(2-methylpyridin-4-yl)-3-(3-(methylsulfonyl)phenyl)-3-o-tolylpropan-1-one oxime] registered an EC50 of 122 nM.

The values above are taken from patent publication US8765730B2 (Hoffmann-La Roche Inc, priority 2010, dated 2014).
